The values that follow come from BindingDB's records for doi:10.1074/jbc.M114.557629 (Weizmann Institute of Science, 2014).

Experiment [1] addresses Sodium/potassium-transporting ATPase subunit alpha-1/beta-1 (Homo sapiens, UniProt P05023+P05026). As to the kind of experiment: Na,K-ATPase Inhibition Assay.
For experiment [2], the target named is Sodium/potassium-transporting ATPase subunit alpha-2/beta-1 (Homo sapiens, UniProt P05026+P50993). As to the kind of experiment: Na,K-ATPase Inhibition Assay.

As usually defined, the Ki is a measure of affinity in units of concentration, obtained from inhibition or displacement. A high value points to a looser hold on the target. With `C[C@]12CC[C@H](O)C[C@H]1CC[C@@H]1[C@@H]2C[C@@H](O)[C@]2(C)[C@@H](C3=CC(=O)OC3)CC[C@]12O` [CS337], the inhibition constant Ki worked out at 139 nM in experiment [1] and 130 nM in experiment [2].
For `CC1CN(C(C)C(N)=O)CCC(O[C@@H]2[C@H](C)O[C@@H](O[C@@H]3[C@H](C)O[C@@H](O[C@H]4CC[C@@]5(C)C(CCC6C5C[C@H](O)[C@]5(C)[C@@H](C7=CC(=O)OC7)CC[C@]65O)C4)C[C@@H]3O)C[C@@H]2O)O1` (some centres not stated) [DAlaN (5)] the same measures were 232 nM and 67 nM.
For `CCN1CCC(O[C@@H]2[C@H](C)O[C@@H](O[C@@H]3[C@H](C)O[C@@H](O[C@H]4CC[C@@]5(C)C(CCC6C5C[C@H](O)[C@]5(C)[C@@H](C7=CC(=O)OC7)CC[C@]65O)C4)C[C@@H]3O)C[C@@H]2O)OC(C)C1` (some centres not stated) [DEt (12)], the Ki amounted to 53 nM in experiment [1] and 18.5 nM in experiment [2].
Consider `CC1CN(CCN)CCC(O[C@@H]2[C@H](C)O[C@@H](O[C@@H]3[C@H](C)O[C@@H](O[C@H]4CC[C@@]5(C)C(CCC6C5C[C@H](O)[C@]5(C)[C@@H](C7=CC(=O)OC7)CC[C@]65O)C4)C[C@@H]3O)C[C@@H]2O)O1` (some centres not stated) [DEtDA (10)], for which the Ki in experiment [1] came to 69 nM; in experiment [2], 16.7 nM.
Consider `COC(=O)CN1CCC(O[C@@H]2[C@H](C)O[C@@H](O[C@@H]3[C@H](C)O[C@@H](O[C@H]4CC[C@@]5(C)C(CCC6C5C[C@H](O)[C@]5(C)[C@@H](C7=CC(=O)OC7)CC[C@]65O)C4)C[C@@H]3O)C[C@@H]2O)OC(C)C1` (some centres not stated) [DGlMe (3)], for which the Ki in experiment [1] was 540 nM; in experiment [2], 128 nM.
In the case of `CC1CN(CC(=O)O)CCC(O[C@@H]2[C@H](C)O[C@@H](O[C@@H]3[C@H](C)O[C@@H](O[C@H]4CC[C@@]5(C)C(CCC6C5C[C@H](O)[C@]5(C)[C@@H](C7=CC(=O)OC7)CC[C@]65O)C4)C[C@@H]3O)C[C@@H]2O)O1` (some centres not stated) [DGly (2)], the inhibition constant Ki turned out to be 124 nM in experiment [1] and 25 nM in experiment [2].
For `CC1CN(CC(N)=O)CCC(O[C@@H]2[C@H](C)O[C@@H](O[C@@H]3[C@H](C)O[C@@H](O[C@H]4CC[C@@]5(C)C(CCC6C5C[C@H](O)[C@]5(C)[C@@H](C7=CC(=O)OC7)CC[C@]65O)C4)C[C@@H]3O)C[C@@H]2O)O1` (some centres not stated) [DGlyN (4)] the same measures were 152 nM and 20.4 nM.
Turning to `CC1CN(C)CCC(O[C@@H]2[C@H](C)O[C@@H](O[C@@H]3[C@H](C)O[C@@H](O[C@H]4CC[C@@]5(C)C(CCC6C5C[C@H](O)[C@]5(C)[C@@H](C7=CC(=O)OC7)CC[C@]65O)C4)C[C@@H]3O)C[C@@H]2O)O1` (some centres not stated) [DMe (11)], the Ki amounted to 101 nM in experiment [1] and 15.6 nM in experiment [2].
For the compound `CC1CN(CC(F)(F)F)CCC(O[C@@H]2[C@H](C)O[C@@H](O[C@@H]3[C@H](C)O[C@@H](O[C@H]4CC[C@@]5(C)C(CCC6C5C[C@H](O)[C@]5(C)[C@@H](C7=CC(=O)OC7)CC[C@]65O)C4)C[C@@H]3O)C[C@@H]2O)O1` (some centres not stated) [DMeCF3 (13)], the Ki in experiment [1] is 199 nM; in experiment [2], 44 nM.
For `CC1CN(O)CCC(O[C@@H]2[C@H](C)O[C@@H](O[C@@H]3[C@H](C)O[C@@H](O[C@H]4CC[C@@]5(C)C(CCC6C5C[C@H](O)[C@]5(C)[C@@H](C7=CC(=O)OC7)CC[C@]65O)C4)C[C@@H]3O)C[C@@H]2O)O1` (some centres not stated) [DOH (1)], the results for the Ki in experiment [1] and in experiment [2] were 311 nM and 134 nM, respectively.
Take `CC1CN(CCC(N)=O)CCC(O[C@@H]2[C@H](C)O[C@@H](O[C@@H]3[C@H](C)O[C@@H](O[C@H]4CC[C@@]5(C)C(CCC6C5C[C@H](O)[C@]5(C)[C@@H](C7=CC(=O)OC7)CC[C@]65O)C4)C[C@@H]3O)C[C@@H]2O)O1` (some centres not stated) [DPrN (9)]: the results for the Ki in experiment [1] and in experiment [2] were 249 nM and 47 nM, respectively.
On to `CC1CN(NC(N)=O)CCC(O[C@@H]2[C@H](C)O[C@@H](O[C@@H]3[C@H](C)O[C@@H](O[C@H]4CC[C@@]5(C)C(CCC6C5C[C@H](O)[C@]5(C)[C@@H](C7=CC(=O)OC7)CC[C@]65O)C4)C[C@@H]3O)C[C@@H]2O)O1` (some centres not stated) [DSCar (8)], for which the Ki worked out at 102 nM in experiment [1] and 20 nM in experiment [2].
For `CC1CN(C(CO)C(=O)O)CCC(O[C@@H]2[C@H](C)O[C@@H](O[C@@H]3[C@H](C)O[C@@H](O[C@H]4CC[C@@]5(C)C(CCC6C5C[C@H](O)[C@]5(C)[C@@H](C7=CC(=O)OC7)CC[C@]65O)C4)C[C@@H]3O)C[C@@H]2O)O1` (some centres not stated) [DSer (6)] the same measures were 316 nM and 145 nM.
With `CC1CN(C(CO)C(N)=O)CCC(O[C@@H]2[C@H](C)O[C@@H](O[C@@H]3[C@H](C)O[C@@H](O[C@H]4CC[C@@]5(C)C(CCC6C5C[C@H](O)[C@]5(C)[C@@H](C7=CC(=O)OC7)CC[C@]65O)C4)C[C@@H]3O)C[C@@H]2O)O1` (some centres not stated) [DSerN (7)], the Ki in experiment [1] was found to be 242 nM; in experiment [2], 144 nM.
Take `CC1CN(C(CC(=O)O)CC(=O)O)CCC(O[C@@H]2[C@H](C)O[C@@H](O[C@@H]3[C@H](C)O[C@@H](O[C@H]4CC[C@@]5(C)C(CCC6C5C[C@H](O)[C@]5(C)[C@@H](C7=CC(=O)OC7)CC[C@]65O)C4)C[C@@H]3O)C[C@@H]2O)O1` (some centres not stated) [DbisGly (14)]: the inhibitory constant (Ki) came out at 80 nM in experiment [1] and 34.9 nM in experiment [2].
For `C[C@H]1O[C@@H](O[C@H]2[C@@H](O)C[C@H](O[C@H]3CC[C@@]4(C)[C@H](CC[C@@H]5[C@@H]4C[C@@H](O)[C@]4(C)[C@@H](C6=CC(=O)OC6)CC[C@]54O)C3)O[C@@H]2C)C[C@H](O)[C@@H]1O` [Dbis], the inhibitory constant (Ki) is 196 nM in experiment [1] and 74 nM in experiment [2].
